Data published in ChEMBL document CHEMBL5042558, “Selective Macrocyclic Inhibitors of DYRK1A/B” (ACS Med Chem Lett, 2022).

Tests used:
CAL-27 [1] = assay: Induction of apoptosis in human CAL-27 cells assessed as BCL-xL level at 10 uM after 24 hrs by Immunoblot analysis relative to control; assay type: functional
CAL-27 [2] = assay: Induction of apoptosis in human CAL-27 cells assessed as PARP level at 1 uM after 24 hrs by Immunoblot analysis relative to control; assay type: functional
CAL-27 [3] = assay: Induction of apoptosis in human CAL-27 cells assessed as BCL-xL level at 1 uM after 24 hrs by Immunoblot analysis relative to control; assay type: functional
CAL-27 [4] = assay: Induction of apoptosis in human CAL-27 cells assessed as increase in cleaved-PARP level at 1 uM after 24 hrs by Immunoblot analysis relative to control; assay type: functional
CAL-27 [5] = assay: Induction of apoptosis in human CAL-27 cells assessed as PARP level at 10 uM after 24 hrs by Immunoblot analysis relative to control; assay type: functional
CAL-27 [6] = assay: Induction of apoptosis in human CAL-27 cells assessed as increase in cleaved-PARP level at 10 uM after 24 hrs by Immunoblot analysis relative to control; assay type: functional
[7] = biological target: Dual specificity tyrosine-phosphorylation-regulated kinase 1B (Homo sapiens, UniProt Q9Y463); assay: Inhibition of DYRK1B (unknown origin) measured after 6 hrs in presence of ATP by Z'-LYTE assay
[8] = Clearance in C57BL/6 mouse at 5 mg/kg, iv measured upto 8 hrs by LC-MS/MS analysis; assay type: ADME, organism-based; conditions: in vivo
[9] = biological target: Myosin light chain kinase, smooth muscle (Homo sapiens, UniProt Q15746); assay: Inhibition of MYLK (unknown origin) at 1 uM by kinome scan method
HEK-293T = assay: Antiproliferative activity against human HEK293T cells assessed as reduction in cell viability at 10 uM measured after 72 hrs by Celltiter-Glo luminescent assay; assay type: toxicity, cell-based
[10] = AUC (0-infinity) in C57BL/6 mouse at 10 mg/kg, po measured upto 8 hrs by LC-MS/MS analysis; assay type: ADME, organism-based; set-up: route oral, dose 10 mg/kg, time <=8; conditions: mouse, in vivo, 8 h
[11] = Half life in C57BL/6 mouse at 5 mg/kg, iv measured upto 8 hrs by LC-MS/MS analysis; assay type: ADME, organism-based; conditions: in vivo
[12] = biological target: Receptor-type tyrosine-protein kinase FLT3 (Homo sapiens, UniProt P36888); assay: Inhibition of FLT3 (unknown origin) at 1 uM by kinome scan method
[13] = AUC (0-infinity) in C57BL/6 mouse at 5 mg/kg, iv measured upto 8 hrs by LC-MS/MS analysis; assay type: ADME, organism-based; set-up: route intravenous, dose 5 mg/kg, time <=8; conditions: in vivo
[14] = Half life in C57BL/6 mouse at 10 mg/kg, po measured upto 8 hrs by LC-MS/MS analysis; assay type: ADME, organism-based; conditions: in vivo
[15] = Cmax in C57BL/6 mouse at 10 mg/kg, po measured upto 8 hrs by LC-MS/MS analysis; assay type: ADME, organism-based; set-up: route oral, dose 10 mg/kg, time <=8; conditions: in vivo
[16] = Oral bioavailability in C57BL/6 mouse at 10 mg/kg measured upto 8 hrs by LC-MS/MS analysis; assay type: ADME, organism-based; conditions: mouse, in vivo, 10 mg/kg, 8 h

Dual specificity tyrosine-phosphorylation-regulated kinase 1B, sequence (Q9Y463 whole entry): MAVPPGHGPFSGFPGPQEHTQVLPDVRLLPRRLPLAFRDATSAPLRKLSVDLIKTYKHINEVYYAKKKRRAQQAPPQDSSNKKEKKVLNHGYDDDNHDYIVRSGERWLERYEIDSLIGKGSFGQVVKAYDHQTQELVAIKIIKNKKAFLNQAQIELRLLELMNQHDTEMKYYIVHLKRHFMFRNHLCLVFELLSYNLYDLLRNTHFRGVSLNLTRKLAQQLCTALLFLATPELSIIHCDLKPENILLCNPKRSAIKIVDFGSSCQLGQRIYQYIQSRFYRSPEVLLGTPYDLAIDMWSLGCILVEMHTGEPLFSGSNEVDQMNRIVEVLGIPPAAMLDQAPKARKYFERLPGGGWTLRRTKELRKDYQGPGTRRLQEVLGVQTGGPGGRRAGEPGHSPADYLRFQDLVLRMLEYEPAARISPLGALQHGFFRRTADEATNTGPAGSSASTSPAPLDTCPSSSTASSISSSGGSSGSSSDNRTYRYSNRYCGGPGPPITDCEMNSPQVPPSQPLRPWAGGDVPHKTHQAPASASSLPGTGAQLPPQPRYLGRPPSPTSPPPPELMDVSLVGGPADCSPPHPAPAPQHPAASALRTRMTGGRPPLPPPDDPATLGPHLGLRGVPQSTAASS
Myosin light chain kinase, smooth muscle, sequence (Q15746 whole entry): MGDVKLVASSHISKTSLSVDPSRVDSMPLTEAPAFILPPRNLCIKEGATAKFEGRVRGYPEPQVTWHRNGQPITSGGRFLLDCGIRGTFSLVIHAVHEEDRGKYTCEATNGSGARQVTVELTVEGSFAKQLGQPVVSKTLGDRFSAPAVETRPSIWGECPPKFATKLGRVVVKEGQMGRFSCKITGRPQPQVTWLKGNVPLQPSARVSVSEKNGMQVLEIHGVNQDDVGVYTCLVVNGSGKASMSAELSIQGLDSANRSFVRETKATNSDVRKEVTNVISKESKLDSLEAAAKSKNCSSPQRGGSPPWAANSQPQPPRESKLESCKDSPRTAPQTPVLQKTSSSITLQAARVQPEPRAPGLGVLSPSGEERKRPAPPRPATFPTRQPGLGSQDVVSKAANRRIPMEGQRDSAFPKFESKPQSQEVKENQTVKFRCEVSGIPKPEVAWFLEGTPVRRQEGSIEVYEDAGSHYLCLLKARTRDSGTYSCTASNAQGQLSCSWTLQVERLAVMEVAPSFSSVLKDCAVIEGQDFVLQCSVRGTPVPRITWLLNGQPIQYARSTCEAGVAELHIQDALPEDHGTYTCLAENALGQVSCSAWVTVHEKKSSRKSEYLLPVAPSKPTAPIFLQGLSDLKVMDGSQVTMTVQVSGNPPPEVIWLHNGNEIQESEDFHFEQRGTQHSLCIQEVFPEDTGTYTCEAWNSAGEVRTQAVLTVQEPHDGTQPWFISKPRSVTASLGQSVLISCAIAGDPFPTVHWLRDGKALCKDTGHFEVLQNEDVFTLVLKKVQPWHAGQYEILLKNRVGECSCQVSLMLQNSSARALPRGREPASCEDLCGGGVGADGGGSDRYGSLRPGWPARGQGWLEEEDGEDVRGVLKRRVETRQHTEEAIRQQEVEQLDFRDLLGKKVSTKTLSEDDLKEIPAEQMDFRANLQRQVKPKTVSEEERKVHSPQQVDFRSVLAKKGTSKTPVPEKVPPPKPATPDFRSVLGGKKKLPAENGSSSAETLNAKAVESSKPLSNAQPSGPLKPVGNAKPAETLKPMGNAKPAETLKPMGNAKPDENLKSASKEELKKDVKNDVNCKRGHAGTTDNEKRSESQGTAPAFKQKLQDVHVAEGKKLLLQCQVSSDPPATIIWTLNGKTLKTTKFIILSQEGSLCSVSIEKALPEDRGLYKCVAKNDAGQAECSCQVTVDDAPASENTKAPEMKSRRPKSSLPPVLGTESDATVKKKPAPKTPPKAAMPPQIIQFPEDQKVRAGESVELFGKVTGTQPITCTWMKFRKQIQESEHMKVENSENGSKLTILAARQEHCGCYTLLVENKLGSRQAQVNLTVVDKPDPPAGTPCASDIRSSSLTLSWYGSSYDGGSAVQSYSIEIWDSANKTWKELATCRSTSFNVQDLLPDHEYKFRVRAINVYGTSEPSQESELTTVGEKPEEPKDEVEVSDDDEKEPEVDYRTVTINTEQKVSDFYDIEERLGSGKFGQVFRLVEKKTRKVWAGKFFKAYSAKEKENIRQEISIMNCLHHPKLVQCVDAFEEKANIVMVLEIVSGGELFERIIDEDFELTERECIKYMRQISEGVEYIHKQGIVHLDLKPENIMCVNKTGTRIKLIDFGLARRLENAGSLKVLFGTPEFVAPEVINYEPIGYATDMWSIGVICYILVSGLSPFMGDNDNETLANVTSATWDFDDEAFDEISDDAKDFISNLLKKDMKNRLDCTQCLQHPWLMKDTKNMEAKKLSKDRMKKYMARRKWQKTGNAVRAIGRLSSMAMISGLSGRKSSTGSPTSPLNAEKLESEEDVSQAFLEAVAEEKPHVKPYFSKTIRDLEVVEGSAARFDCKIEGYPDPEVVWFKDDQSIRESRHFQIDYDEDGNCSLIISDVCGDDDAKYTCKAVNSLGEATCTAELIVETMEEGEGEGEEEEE
Receptor-type tyrosine-protein kinase FLT3, sequence (P36888 whole entry): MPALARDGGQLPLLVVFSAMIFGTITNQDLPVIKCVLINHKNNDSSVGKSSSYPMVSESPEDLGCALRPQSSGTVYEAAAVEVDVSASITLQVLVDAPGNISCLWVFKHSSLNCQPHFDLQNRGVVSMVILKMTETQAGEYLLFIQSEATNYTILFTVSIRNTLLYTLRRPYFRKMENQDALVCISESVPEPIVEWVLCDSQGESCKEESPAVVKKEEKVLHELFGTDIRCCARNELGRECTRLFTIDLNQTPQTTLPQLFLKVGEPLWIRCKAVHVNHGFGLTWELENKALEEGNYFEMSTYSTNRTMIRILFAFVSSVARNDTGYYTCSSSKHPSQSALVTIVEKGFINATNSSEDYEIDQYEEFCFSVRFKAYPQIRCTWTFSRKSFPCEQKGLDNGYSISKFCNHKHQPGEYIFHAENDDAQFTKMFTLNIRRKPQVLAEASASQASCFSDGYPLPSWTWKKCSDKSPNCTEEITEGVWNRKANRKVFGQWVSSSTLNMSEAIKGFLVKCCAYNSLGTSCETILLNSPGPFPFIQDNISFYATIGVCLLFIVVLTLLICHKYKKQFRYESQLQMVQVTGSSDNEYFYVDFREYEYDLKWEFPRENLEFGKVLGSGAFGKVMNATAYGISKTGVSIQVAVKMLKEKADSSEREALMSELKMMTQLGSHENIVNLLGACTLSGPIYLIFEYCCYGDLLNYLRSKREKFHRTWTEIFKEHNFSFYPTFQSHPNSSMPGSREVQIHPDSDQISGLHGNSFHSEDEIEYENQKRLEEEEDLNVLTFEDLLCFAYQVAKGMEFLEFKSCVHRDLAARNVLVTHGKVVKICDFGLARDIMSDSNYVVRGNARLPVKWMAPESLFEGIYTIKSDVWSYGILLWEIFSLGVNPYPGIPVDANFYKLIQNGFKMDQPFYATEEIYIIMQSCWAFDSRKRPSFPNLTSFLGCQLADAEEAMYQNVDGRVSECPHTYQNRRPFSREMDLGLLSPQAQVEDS

Row | SMILES | Activity (CAL-27 [1]) [%] | Activity (CAL-27 [2]) [%] | Activity (CAL-27 [3]) [%] | Activity (CAL-27 [4]) [%] | Activity (CAL-27 [5]) [%] | Activity (CAL-27 [6]) [%] | IC50 [7] [µM] | also measured
1 | COc1c2c(nn1C)CN(C(C)C)C(=O)CCCn1cc(c(C(F)(F)F)n1)-c1c(C)[nH]c3ncc-2cc13 | 61 | 113 | 79 | 119 | 117 | 145 | – | –
2 | CN1Cc2nn(C)c(C#N)c2-c2cnc3[nH]nc(c3c2)-c2cn(nc2C(F)(F)F)CCCC1=O | – | – | – | – | – | – | 0.929 | –
3 | CN1Cc2nn(C)c(C#N)c2-c2cnc3[nH]cc(c3c2)-c2cn(nc2C(F)(F)F)CCCC1=O | – | – | – | – | – | – | – | clearance [8]: 167 mL/min/kg; IC50 [9]: 0.334 µM; Activity (HEK-293T): Non-Toxic; AUC [10]: 23.6 ng·h/mL; half-life [11]: 0.3 h; IC50 [12]: 0.354 µM; AUC [13]: 504.9 ng·h/mL; half-life [14]: 2 h; Cmax [15]: 11.6 µM; F [16]: 1.1%
4 | Cc1[nH]c2ncc3cc2c1-c1cn(nc1C(F)(F)F)CCCC(=O)N(C)Cc1nn(C)c(C#N)c1-3 | 105 | 120 | 103 | 133 | 134 | 190 | – | –
5 | COc1c2c(nn1C)CN(C(C)C)C(=O)CCCn1cc(c(C(F)(F)F)n1)-c1c[nH]c3ncc-2cc13 | 84 | 110 | 130 | 140 | 112 | 538 | – | –
6 | CN1Cc2nn(C)c(C#N)c2-c2cnc3[nH]cc(c3n2)-c2cn(nc2C(F)(F)F)CCCC1=O | – | – | – | – | – | – | 0.018 | –
